Measurements taken from US8426345B2, “Method of drug design” (Alchemia Limited, priority 2005, dated 2013).

Molecular target: T1, Human SST5 somatostatin receptor (Homo sapiens, UniProt P35346)
T1 construct: expressed in transfected cells; host or cells: HEK-293 EBNA cells (membranes)
Test: Filter plate radio-ligand binding assay for SST5 receptor ([125I]SST-14 displacement)
Settings: for % SST5 radio-ligand binding displaced at conc 0.25: conc 0.25 μM; for % SST5 radio-ligand binding displaced at conc 1.0: conc 1.0 μM; for % SST5 radio-ligand binding displaced at conc 10: conc 10 μM

[1] = compound conc 50 μM, 2P library
[2] = compound conc 250 μM, 2P library
[3] = compound conc 500 μM, 2P library

T1 sequence (P35346 whole entry): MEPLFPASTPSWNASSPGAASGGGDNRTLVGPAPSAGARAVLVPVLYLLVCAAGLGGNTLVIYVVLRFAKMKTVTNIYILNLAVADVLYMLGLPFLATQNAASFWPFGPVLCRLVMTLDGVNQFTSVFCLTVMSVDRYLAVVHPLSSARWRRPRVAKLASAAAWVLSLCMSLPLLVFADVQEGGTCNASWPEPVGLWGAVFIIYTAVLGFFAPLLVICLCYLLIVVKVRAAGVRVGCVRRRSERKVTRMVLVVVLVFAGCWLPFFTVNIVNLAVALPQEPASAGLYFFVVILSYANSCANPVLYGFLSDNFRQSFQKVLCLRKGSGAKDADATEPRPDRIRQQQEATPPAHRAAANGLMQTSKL

SMILES | % SST5 radio-ligand binding displaced at conc 0.25 (3P library) | % SST5 radio-ligand binding displaced at conc 1.0 (3P library) | other results
COC[C@H]1O[C@@H](OCc2ccc(Cl)cc2)[C@H](NC(=O)CN)[C@H](OC)[C@@H]1O [Compound 35] |  |  | % SST5 radio-ligand binding displaced at conc 50 [1]: − (% SST5 radio-ligand binding displaced at cone (μM) −<40%); % SST5 radio-ligand binding displaced at conc 250 [2]: − (% SST5 radio-ligand binding displaced at cone (μM) −<40%); % SST5 radio-ligand binding displaced at conc 500 [3]: − (% SST5 radio-ligand binding displaced at cone (μM) −<40%)
COC[C@H]1O[C@@H](OCc2ccc(Cl)cc2)[C@H](NC(=O)CN)[C@@H](OC)[C@@H]1O [Compound 13] |  |  | % SST5 radio-ligand binding displaced at conc 50 [1]: − (% SST5 radio-ligand binding displaced at cone (μM) −<40%); % SST5 radio-ligand binding displaced at conc 250 [2]: − (% SST5 radio-ligand binding displaced at cone (μM) −<40%); % SST5 radio-ligand binding displaced at conc 500 [3]: − (% SST5 radio-ligand binding displaced at cone (μM) −<40%)
COC[C@H]1O[C@H](OCc2ccc3ccccc3c2)[C@H](NC(=O)CCN)[C@@H](OCc2cc(Cl)ccc2Cl)[C@@H]1O [Compound 108] | + (% SST5 radio-ligand binding displaced at cone (μM) 60>+>40%) | ++ (% SST5 radio-ligand binding displaced at conc (μM) >60%) | 
COCC1OC(OCc2ccc3ccccc3c2)C(NC(=O)CCCN)C(OCc2ccc(-c3ccccc3)cc2)C1O (mixture of isomers) [Compound 128] | − (% SST5 radio-ligand binding displaced at cone (μM) −<40%) | + (% SST5 radio-ligand binding displaced at cone (μM) 60>+>40%) | % SST5 radio-ligand binding displaced at conc 0.001 (conc 0.001 μM, 3P library): − (% SST5 radio-ligand binding displaced at cone (μM) −<40%); % SST5 radio-ligand binding displaced at conc 0.10 (conc 0.10 μM, 3P library): − (% SST5 radio-ligand binding displaced at cone (μM) −<40%); % SST5 radio-ligand binding displaced at conc 0.5 (conc 0.5 μM, 3P library): ++ (% SST5 radio-ligand binding displaced at conc (μM) >60%); % SST5 radio-ligand binding displaced at conc 10 (3P library): ++ (% SST5 radio-ligand binding displaced at conc (μM) >60%)
COC[C@H]1O[C@H](OCc2ccc3ccccc3c2)[C@H](NC(=O)CC(C)N)[C@@H](OCc2ccc3ccccc3c2)[C@@H]1O (stereo partly drawn) [Compound 100] | + (% SST5 radio-ligand binding displaced at cone (μM) 60>+>40%) | ++ (% SST5 radio-ligand binding displaced at conc (μM) >60%) | 
COC[C@H]1O[C@H](OCc2ccc3ccccc3c2)[C@H](NC(=O)CCCN)[C@@H](OCc2ccc(Oc3ccccc3)cc2)[C@@H]1O [Compound 155] | ++ (% SST5 radio-ligand binding displaced at conc (μM) >60%) | ++ (% SST5 radio-ligand binding displaced at conc (μM) >60%) | 
NCCC(=O)NC1C(OCc2ccc3ccccc3c2)OC(COCc2ccccc2)C(O)C1OCc1ccccc1 (mixture of isomers) [Compound 77] | − (% SST5 radio-ligand binding displaced at cone (μM) −<40%) | ++ (% SST5 radio-ligand binding displaced at conc (μM) >60%) | 
COC[C@H]1O[C@H](OCc2ccc3ccccc3c2)[C@H](NC(=O)CCCN)[C@@H](OCc2cccc3ccccc23)[C@@H]1O [Compound 151] | + (% SST5 radio-ligand binding displaced at cone (μM) 60>+>40%) | ++ (% SST5 radio-ligand binding displaced at conc (μM) >60%) | 
COC[C@H]1O[C@H](OCc2ccc3ccccc3c2)[C@H](NC(=O)CN)[C@@H](OC)[C@@H]1O [Compound 12] |  |  | % SST5 radio-ligand binding displaced at conc 50 [1]: − (% SST5 radio-ligand binding displaced at cone (μM) −<40%); % SST5 radio-ligand binding displaced at conc 250 [2]: − (% SST5 radio-ligand binding displaced at cone (μM) −<40%); % SST5 radio-ligand binding displaced at conc 500 [3]: − (% SST5 radio-ligand binding displaced at cone (μM) −<40%)
COCC1OC(OCc2ccc3ccccc3c2)C(NC(=O)CCCN)C(OCc2cccc(O)c2)C1O (mixture of isomers) [Compound 130] |  |  | % SST5 radio-ligand binding displaced at conc 10 (3P library): ++ (% SST5 radio-ligand binding displaced at conc (μM) >60%)
CO[C@H]1[C@H](O)[C@@H](COCc2ccc3ccccc3c2)O[C@@H](SC)[C@@H]1NC(=O)CN [Compound 8] |  |  | % SST5 radio-ligand binding displaced at conc 50 [1]: − (% SST5 radio-ligand binding displaced at cone (μM) −<40%); % SST5 radio-ligand binding displaced at conc 250 [2]: + (% SST5 radio-ligand binding displaced at cone (μM) 60>+>40%); % SST5 radio-ligand binding displaced at conc 500 [3]: ++ (% SST5 radio-ligand binding displaced at conc (μM) >60%)
CO[C@@H]1[C@H](O)[C@@H](COCc2ccc(Cl)cc2)O[C@@H](SC)[C@@H]1NC(=O)CCCN [Compound 41] |  |  | % SST5 radio-ligand binding displaced at conc 50 [1]: − (% SST5 radio-ligand binding displaced at cone (μM) −<40%); % SST5 radio-ligand binding displaced at conc 250 [2]: − (% SST5 radio-ligand binding displaced at cone (μM) −<40%); % SST5 radio-ligand binding displaced at conc 500 [3]: − (% SST5 radio-ligand binding displaced at cone (μM) −<40%)
COC[C@H]1O[C@H](OCc2ccc3ccccc3c2)[C@H](NC(=O)CCN)[C@@H](OCc2cccc(Cl)c2Cl)[C@@H]1O [Compound 117] | ++ (% SST5 radio-ligand binding displaced at conc (μM) >60%) | ++ (% SST5 radio-ligand binding displaced at conc (μM) >60%) | 
CO[C@H]1[C@H](O)[C@@H](COCc2ccc(Cl)cc2)O[C@@H](SC)[C@@H]1NC(=O)CCCN [Compound 22] |  |  | % SST5 radio-ligand binding displaced at conc 50 [1]: − (% SST5 radio-ligand binding displaced at cone (μM) −<40%); % SST5 radio-ligand binding displaced at conc 250 [2]: − (% SST5 radio-ligand binding displaced at cone (μM) −<40%); % SST5 radio-ligand binding displaced at conc 500 [3]: − (% SST5 radio-ligand binding displaced at cone (μM) −<40%)
COC[C@H]1OC(OCc2ccc3ccccc3c2)[C@H](NC(=O)CCN)[C@@H](OCc2ccc(Cl)cc2)[C@@H]1O (single isomer, unassigned) [Compound 89] | − (% SST5 radio-ligand binding displaced at cone (μM) −<40%) | − (% SST5 radio-ligand binding displaced at cone (μM) −<40%) | 
COC[C@H]1O[C@H](OCc2ccc3ccccc3c2)[C@H](NC(=O)CCCN)[C@@H](OCc2cc(Cl)ccc2Cl)[C@@H]1O [Compound 145] | + (% SST5 radio-ligand binding displaced at cone (μM) 60>+>40%) | ++ (% SST5 radio-ligand binding displaced at conc (μM) >60%) | 
COC[C@H]1O[C@H](OCc2ccc3ccccc3c2)[C@H](NC(=O)CCN)[C@@H](OCc2ccc(Cl)cc2Cl)[C@@H]1O [Compound 115] | + (% SST5 radio-ligand binding displaced at cone (μM) 60>+>40%) | ++ (% SST5 radio-ligand binding displaced at conc (μM) >60%) | 
CO[C@H]1[C@H](O)[C@@H](COCc2ccc(-c3ccccc3)cc2)OC(OCc2ccc3ccccc3c2)[C@@H]1NC(=O)CCN (single isomer, unassigned) [Compound 96] | − (% SST5 radio-ligand binding displaced at cone (μM) −<40%) | − (% SST5 radio-ligand binding displaced at cone (μM) −<40%) | 
CO[C@H]1[C@H](O)[C@@H](COCc2ccc(Cl)cc2)OC(OCc2ccc3ccccc3c2)[C@@H]1NC(=O)CCN (single isomer, unassigned) [Compound 95] | − (% SST5 radio-ligand binding displaced at cone (μM) −<40%) | − (% SST5 radio-ligand binding displaced at cone (μM) −<40%) | 
NCCC(=O)NC1C(OCc2ccc3ccccc3c2)OC(COCc2ccc(Cl)cc2)C(O)C1OCc1ccc2ccccc2c1 (stereo not drawn) [Compound 83] | − (% SST5 radio-ligand binding displaced at cone (μM) −<40%) | ++ (% SST5 radio-ligand binding displaced at conc (μM) >60%) | 
COC[C@H]1O[C@H](OCc2ccc(Cl)cc2)[C@H](NC(=O)CN)[C@@H](OC)[C@@H]1O [Compound 156] |  |  | % SST5 radio-ligand binding displaced at conc 50 (conc 50 μM, 3P library): − (% SST5 radio-ligand binding displaced at cone (μM) −<40%); % SST5 radio-ligand binding displaced at conc 250 (conc 250 μM, 3P library): − (% SST5 radio-ligand binding displaced at cone (μM) −<40%); % SST5 radio-ligand binding displaced at conc 500 (conc 500 μM, 3P library): − (% SST5 radio-ligand binding displaced at cone (μM) −<40%)
COC[C@H]1O[C@H](OCc2ccc3ccccc3c2)[C@H](NC(=O)CCCN)[C@@H](OCc2nc3ccccc3s2)[C@@H]1O [Compound 148] | − (% SST5 radio-ligand binding displaced at cone (μM) −<40%) | − (% SST5 radio-ligand binding displaced at cone (μM) −<40%) | 
COC1C(O)C(COCc2ccc3ccccc3c2)OC(OCc2ccc(Cl)cc2)C1NC(=O)CN (mixture of isomers) [Compound 179] | − (% SST5 radio-ligand binding displaced at cone (μM) −<40%) | − (% SST5 radio-ligand binding displaced at cone (μM) −<40%) | 
COC[C@H]1O[C@H](OCc2ccc3ccccc3c2)[C@H](NC(=O)CCN(C)C)[C@@H](OCc2ccc3ccccc3c2)[C@@H]1O [Compound 106] | − (% SST5 radio-ligand binding displaced at cone (μM) −<40%) | − (% SST5 radio-ligand binding displaced at cone (μM) −<40%) | 
COC[C@H]1O[C@H](OCc2ccc3ccccc3c2)[C@H](NC(=O)CCCN)[C@@H](OCc2cccc(Cl)c2Cl)[C@@H]1O [Compound 154] | ++ (% SST5 radio-ligand binding displaced at conc (μM) >60%) | ++ (% SST5 radio-ligand binding displaced at conc (μM) >60%) | 
